The values that follow come from US11649235B2, “Pan-tropic entry inhibitors” (Emory University, priority 2018, dated 2023).

The subject of one data set is HIV-1BaL. The data set can be described thus: HIV MAGI assay, HIV-1BaL. The class given is cell-based. Particulars: Table 3. The protocol:
(§1) HIV-1 and MAGI Tropism assays can be used to establish activity/cytotoxicity and synergy studies and ADME profiles of compounds are evaluated using in vitro assays such as CYP2D6/3A4 assays and metabolic stability in human and mouse liver microsomes (See Tables 2 and 3).

In data set [1] the test system is MAGI. The data set can be described thus: Cytotoxicity in MAGI HIV-1IIIB assay. The class given is cell-based. The protocol:
as §1

For another data set, the system named is HIV-1IIIB. The data set can be described thus: HIV MAGI assay, HIV-1IIIB. The class given is cell-based. Particulars: Table 3. The protocol:
as §1

In data set [2] the test system is MAGI. Kind of data set: Cytotoxicity in MAGI HIV-1BaL assay. The class given is cell-based. On the procedure: as §1
The target in the next data set is CYP2D6 (Homo sapiens (Human), UniProt P10635). The data set can be described thus: Recombinant CYP inhibition assay (fluorometric), CYP2D6. The class given is in vitro ADME. The note with it: human, recombinant CYP2D6, pH 7.4, probe AMMC (4 μM); at 1 μM; read-out: Inhibition of P450 2D6. From the text: (§2) Recombinant CYP Inhibition Assay: In a drug discovery program, a rapid screening for cyctochrome P450 (CYP450) inhibitors is a part of the existing standard for avoiding the development of drugs likely to give clinical pharmacokinetic drug-drug interactions and associated toxicities. A microtiter plate-based, direct fluorometric assay for the activities of the principal human drug-metabolizing enzymes, CYP2D6 and CYP3A4 can be used and these assays are rapid and compatible with existing high-throughput assay instrumentation.
(§3) Fluorometric Enzyme Inhibition Assays: Test compounds were dissolved in 100% organic solvent (CH3CN or DMSO) to make 30 mM stock solutions. […] A 100 mM potassium phosphate buffer was prepared and adjusted to pH 7.4. The 30 mM stock solution of test and control compounds (1 mM) were further diluted in phosphate buffer (100 mM, pH 7.4) to ensure the final organic solvent content was <0.2% in the reaction. In a separate falcon tube, a 2× enzyme/substrate (E/S) solution was prepared in phosphate buffer. The final concentration of CYP2D6 (Corning) and AMMC was 10 nM and 4 μM, and CYP3A4 (Corning) and BFC was 20 nM and 40 μM, respectively. In a separate falcon tube, a 2× NADPH regenerating system (NRS) was prepared in phosphate buffer. The final concentration for each component in the assay was as follows: • CYP2D6 assay=0.008 mM NADPH, 3.3 mM glucose 6-phosphate, 0.4 U of glucose-6-phosphate dehydrogenase/mL • CYP3A4 assay=2.45 mM NADPH, 24.7 mM glucose 6-phosphate, 1.25 U of glucose-6-phosphate dehydrogenase/mL
(§4) Both enzymatic assays were conducted in a 96-well microtiter plate (Black, Corning Costar) with a final volume of 100 μL. Preparation of the plate began with the addition of 74 μL of the E/S in the first well, and 50 μL to all subsequent wells (from 2-11). The test compounds (1 μL) were dissolved in the first well to give the first row a final volume of 75 μL. A 1:3 serial dilution of the test compound was conducted by removing 25 μL from the first well and diluting it with the second and so forth until the tenth row. Final concentrations yielded a range from 300 μM-0.01 μM. Well 11 contained no enzyme, and well 12 contained no inhibitor. Both were used as controls for background fluorescence. The plate was incubated for 10 min at 37° C. for CYP2D6, and 30 mins for CYP3A4. After incubation, the reaction was initiated by the addition of 50 μL of the 2× NRS to each well.
(§5) Immediately (within 1 min) the fluorescence was measured using a microplate reader (KC4, BioTek). CYP2D6 was monitored at Ex/Em=410/460 nm, and CYP3A4 monitored at Ex/Em=410/538 nm in kinetic mode that scanned every 5 min for 60 mins. Data was exported and corrected for background noise by subtracting the blank from the mean value of all other columns. […]

The next data set has as its target CYP3A4 (Homo sapiens (Human), UniProt P08684). Kind of data set: Recombinant CYP inhibition assay (fluorometric), CYP3A4. The class given is in vitro ADME. Particulars: at 1 μM.
Excerpt: as §2, §3, §4, §5

Setting [3] is: Human immunodeficiency virus 1, MAGI.

For orientation: IC50 means the concentration that inhibits the measured activity by half. Broadly, the IC90 is the concentration needed for an effect of 90%. One may read the inhibition as the percentage by which the read-out fell short of the control.

Where only a bound is given, the exact number is not on record here.

Chain of CYP2D6 (P10635 whole entry): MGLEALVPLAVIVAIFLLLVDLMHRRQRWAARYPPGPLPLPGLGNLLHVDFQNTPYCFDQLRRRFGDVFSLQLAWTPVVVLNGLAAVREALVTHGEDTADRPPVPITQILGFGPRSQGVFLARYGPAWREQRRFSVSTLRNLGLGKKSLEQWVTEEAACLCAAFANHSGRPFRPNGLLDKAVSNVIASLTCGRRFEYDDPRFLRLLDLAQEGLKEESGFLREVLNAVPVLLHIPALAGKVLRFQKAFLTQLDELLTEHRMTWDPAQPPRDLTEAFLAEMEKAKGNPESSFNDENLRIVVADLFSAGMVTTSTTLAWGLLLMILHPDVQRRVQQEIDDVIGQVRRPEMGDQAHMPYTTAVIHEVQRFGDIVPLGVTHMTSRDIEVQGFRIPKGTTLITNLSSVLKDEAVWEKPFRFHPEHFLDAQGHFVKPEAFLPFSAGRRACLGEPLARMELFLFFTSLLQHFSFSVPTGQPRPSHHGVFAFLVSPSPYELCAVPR
Chain of CYP3A4 (P08684 whole entry): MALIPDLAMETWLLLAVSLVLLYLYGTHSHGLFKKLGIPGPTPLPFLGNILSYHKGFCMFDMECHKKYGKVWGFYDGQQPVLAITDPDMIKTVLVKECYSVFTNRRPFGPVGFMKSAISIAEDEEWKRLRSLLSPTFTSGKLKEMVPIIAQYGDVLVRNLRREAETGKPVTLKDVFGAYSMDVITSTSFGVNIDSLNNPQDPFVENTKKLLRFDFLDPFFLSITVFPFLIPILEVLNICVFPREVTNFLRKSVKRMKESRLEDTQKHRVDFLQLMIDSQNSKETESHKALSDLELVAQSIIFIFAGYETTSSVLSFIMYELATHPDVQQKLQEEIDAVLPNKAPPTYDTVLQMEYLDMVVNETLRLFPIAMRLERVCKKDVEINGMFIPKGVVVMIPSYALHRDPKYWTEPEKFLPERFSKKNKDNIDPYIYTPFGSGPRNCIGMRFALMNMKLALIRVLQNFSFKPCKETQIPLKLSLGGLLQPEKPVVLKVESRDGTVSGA

For the molecule `NCCCCN(CC1NC[C@@H]2CC[C@H]1N2CC[C@H](NC(=O)C1CCC(F)(F)CC1)c1ccccc1)[C@H]1CCCc2cccnc21` (single isomer, unassigned) [LRf isomer 95], the figures for the IC50 in the data set with HIV-1BaL and with HIV-1IIIB were 9.36 µM and greater than 10 µM, respectively. Also, the figures for the IC90 in the data set on HIV-1BaL and in the data set on HIV-1IIIB were greater than 100 µM and greater than 10 µM, respectively. For the same molecule, the “MAGI HIV-1IIIB TC50” value with MAGI [1] (human) is greater than 10.0 µM. In the data set on MAGI [2] (human), the “MAGI HIV-1BaL TC90” value was greater than 100 µM.
Turning to `NCCCCN(CC1NC[C@@H]2CC[C@H]1N2CC[C@H](NC(=O)C1CCC(F)(F)CC1)c1ccccc1)[C@H]1CCCc2cccnc21` (single isomer, unassigned) [URf isomer 95], in the data set with HIV-1BaL, the concentration for half-maximal inhibition (IC50) was 0.82 µM and the IC90 came out at 8.96 µM. In addition, in the data set on MAGI [1] (human), the “MAGI HIV-1IIIB TC50” value is greater than 10.0 µM. Further, in the data set with HIV-1IIIB, the IC50 was determined as 0.17 µM and the IC90 is 0.9 µM. The “MAGI HIV-1BaL TC90” value in the data set with MAGI [2] (human) is greater than 100 µM.
Consider `NCCCCN(Cc1nc2ccccc2[nH]1)[C@H]1CCCc2cccnc21` [AMD11070, reference compound], for which, on CYP2D6, the inhibition at 60 min, 1 µM amounted to 100%. In addition, at CYP3A4, the “Inhibition of P450 3A4” value stood at 35%.
For `NCCCCN(C[C@H]1CN(CC[C@H](NC(=O)C2CCC(F)(F)CC2)c2ccccc2)CCN1Cc1cncs1)[C@H]1CCCc2cccnc21` [Compound 66], in the data set with HIV-1BaL (setting [3]), the IC50 was 0.33 µM and the 90% effect concentration (IC90) is 4.38 µM. For the same molecule, in the data set with MAGI [1] (Table 3), the “MAGI HIV-1IIIB TC50” value is greater than 100 µM. Besides, in the data set with HIV-1IIIB (setting [3]), the IC50 came to 12.4 µM and the IC90 is 65.8 µM. Further, the “MAGI HIV-1BaL TC90” value in the data set with MAGI [2] (Table 3, head prints TC90) was greater than 100 µM.
Turning to `NCCCCN(C[C@H]1CN(CC[C@H](NC(=O)C2CCC(F)(F)CC2)c2ccccc2)CCN1Cc1cnco1)[C@H]1CCCc2cccnc21` [Compound 67], in the data set with HIV-1BaL (setting [3]), the IC50 came to 2.33 µM and the IC90 came out at 36.7 µM. In addition, the “MAGI HIV-1IIIB TC50” value in the data set on MAGI [1] (Table 3) was greater than 100 µM. In addition, in the data set on HIV-1IIIB (setting [3]), the IC50 came out at 3.19 µM and the IC90 came to 44.6 µM. Also, in the data set on MAGI [2] (Table 3, head prints TC90), the “MAGI HIV-1BaL TC90” value was greater than 100 µM.
Take `CN1CCN(CC[C@H](NC(=O)C2CCC(F)(F)CC2)c2ccccc2)C[C@@H]1CN(CCCCN)[C@H]1CCCc2cccnc21` [Compound 68]: in the data set with HIV-1BaL (setting [3]), the 50% inhibitory concentration (IC50) came out at 4.16 µM and the IC90 turned out to be 66.8 µM. Further, the “MAGI HIV-1IIIB TC50” value in the data set on MAGI [1] (Table 3) is greater than 100 µM. For the same molecule, in the data set on HIV-1IIIB (setting [3]), the IC50 is 10.2 µM and the IC90 worked out at 70.2 µM. Besides, the “MAGI HIV-1BaL TC90” value in the data set on MAGI [2] (Table 3, head prints TC90) is greater than 100 µM.
As to `NCCCCN(C[C@H]1CN(CC[C@H](NC(=O)C2CCC(F)(F)CC2)c2ccccc2)CCN1CC1COC1)[C@H]1CCCc2cccnc21` [Compound 75, N—((S)-3-((R)-3-(((4-aminobutyl)((S)-5,6,7,8-tetrahydroquinolin-8-yl)amino)methyl)-4-(oxetan-3-ylmethyl)piperazin-1-yl)-1-phenylpropyl)-4,4-difluorocyclohexane-1-carboxamide], in the data set with HIV-1BaL (setting [3]), the IC50 worked out at 2.51 µM and the 90% effect concentration (IC90) turned out to be 97.1 µM. Further, the “MAGI HIV-1IIIB TC50” value in the data set with MAGI [1] (Table 3) was greater than 100 µM. In the data set with HIV-1IIIB (setting [3]), the IC50 was found to be 6.61 µM and the IC90 was 68.5 µM. Moreover, the “MAGI HIV-1BaL TC90” value in the data set on MAGI [2] (Table 3, head prints TC90) was greater than 100 µM.
With `NCCCCN(C[C@H]1CN(CC[C@H](NC(=O)C2CCC(F)(F)CC2)c2ccccc2)CCN1Cc1cnc[nH]1)[C@H]1CCCc2cccnc21` [Compound 77, N—((S)-3-((R)-4-((1H-imidazol-5-yl)methyl)-3-(((4-aminobutyl)((S)-5,6,7,8-tetrahydroquinolin-8-yl)amino)methyl)piperazin-1-yl)-1-phenylpropyl)-4,4-difluorocyclohexane-1-carboxamide], in the data set on HIV-1BaL (setting [3]), the IC50 amounted to 1.54 µM and the IC90 is 23 µM. In addition, the “MAGI HIV-1IIIB TC50” value in the data set on MAGI [1] (Table 3) was greater than 100 µM. For the same molecule, in the data set on HIV-1IIIB (setting [3]), the IC50 came out at 0.002 µM and the concentration for an effect of 90% (IC90) came out at 0.009 µM. Further, in the data set with MAGI [2] (Table 3, head prints TC90), the “MAGI HIV-1BaL TC90” value is greater than 100 µM.
As for `Cn1cncc1CN1CCN(CC[C@H](NC(=O)C2CCC(F)(F)CC2)c2ccccc2)C[C@@H]1CN(CCCCN)[C@H]1CCCc2cccnc21` [Compound 79, N—((S)-3-((R)-3-(((4-aminobutyl)((S)-5,6,7,8-tetrahydroquinolin-8-yl)amino)methyl)-4-((1-methyl-1H-imidazol-5-yl)methyl)piperazin-1-yl)-1-phenylpropyl)-4,4-difluorocyclohexane-1-carboxamide], in the data set on HIV-1BaL (setting [3]), the IC50 was found to be 0.66 µM and the IC90 was 7.35 µM. In the data set with MAGI [1] (Table 3), the “MAGI HIV-1IIIB TC50” value is greater than 100 µM. Also, in the data set on HIV-1IIIB (setting [3]), the IC50 is 2.58 µM and the IC90 was found to be 36.5 µM. Besides, the “MAGI HIV-1BaL TC90” value in the data set with MAGI [2] (Table 3, head prints TC90) was greater than 100 µM.
As to `NCCCCN(C[C@H]1CN(CC[C@H](NC(=O)C2CCC(F)(F)CC2)c2ccccc2)CCN1Cc1ccncc1)[C@H]1CCCc2cccnc21` [Compound 81, N—((S)-3-((R)-3-(((4-aminobutyl)((S)-5,6,7,8-tetrahydroquinolin-8-yl)amino)methyl)-4-(pyridin-4-ylmethyl)piperazin-1-yl)-1-phenylpropyl)-4,4-difluorocyclohexane-1-carboxamide], in the data set with HIV-1BaL (setting [3]), the IC50 stood at 0.95 µM and the IC90 was 22.7 µM. In addition, the “MAGI HIV-1IIIB TC50” value with MAGI [1] (Table 3) is greater than 100 µM. Also, in the data set with HIV-1IIIB (setting [3]), the IC50 came to 3.49 µM and the concentration for an effect of 90% (IC90) was 52.7 µM. The “MAGI HIV-1BaL TC90” value in the data set with MAGI [2] (Table 3, head prints TC90) was greater than 100 µM.
